# According to patent US20030087799A1, “Modulation” (priority 2001, published 2003):
# Read-outs that look alike come from different tables or passages of the source.
# Legend:
# GABAA receptor = GABAA receptor mediated chloride currents evoked on cultured neurones; format: cell-based
# [1] = test system: K-ATP channels in DA neurones; assay: K-ATP channel mediated response of DA neurones to mitochondrial inhibitors; format: cell-based, mouse; settings: read-out: EC50 of K-ATP channel sensitivity
# [2] = test system: Ih channels in DA SN neurones; assay: Pacemaker frequency of DA SN neurones under selective Ih inhibition; format: cell-based; settings: 30 μM ZD7288
# [3] = test system: SK mediated AHP currents (I-AHP) in dopaminergic neurons; assay: cells; format: cell-based, mouse; settings: for IC50: read-out: IC50 of I-AHP inhibition (Hill function)
# [4] = test system: T-type calcium channels (low voltage-activated calcium currents); format: cell-based, mouse; settings: read-out: IC50 of I-LVA inhibition (Hill function)
# globus pallidus neurones = assay: Electrical activity of globus pallidus neurones in brain slices; format: cell-based, mouse
# dopaminergic neurons [5] = format: cell-based, mouse
# dopaminergic neurons [6] = test system: dopaminergic neurons
# [7] = test system: dopaminergic midbrain neurons; format: cell-based, mouse
compound,measurement,setting,value
"[H]/N=C(/N)NCC(=O)O [GAA, guanidinoacetate]",EC50,GABAA receptor,164 µM
C[n+]1ccc(-c2ccccc2)cc1 [MPP^+],EC50,[1]; MPP+,~2000 nM
CCN(c1ccccc1)c1cc(=NC)n(C)c(C)n1.Cl [ZD7288],decrease of pacemaker frequency,[2],about 50%
"COCC(=O)O[C@]1(CCN(C)CCCc2nc3ccccc3[nH]2)CCc2cc(F)ccc2[C@@H]1C(C)C [mibefradil, Mibefradil]",IC50,"[3]; Mus musculus, Neuron, mean dose-response, recording potential −60 mV",5.9 µM
same,inhibition of cobalt-sensitive I-AHP,"[3]; mibefradil, concentration not given, normalized to mean value of cobalt block, n=6",94±10%
same,IC50,[4]; depolarizations to −50 mV from holding potential −100 mV,4.6 µM
C=C(C)[C@H]1Cc2c(ccc3c2O[C@@H]2COc4cc(OC)c(OC)cc4[C@@H]2C3=O)O1 [rotenone],EC50,[1]; rotenone,~15 nM
picrotoxin,effect on GAA-induced effects,globus pallidus neurones; GABAA receptor antagonists,blocked
[Co+2] [cobalt],I-AHP residual current (cobalt block),"[3]; 1 mM cobalt, n=29",29±4%
[Ni+2] [nickel],inhibition of cobalt-sensitive I-AHP,[3],85±9%
same,IC50,[3],33.8 µM
same,IC50,[4],33.9 µM
same,"coefficient of variation (CV) of interspike intervals, representative recording",dopaminergic neurons [5],38%
same,mean CV of interspike intervals,dopaminergic neurons [5],27±5%
same,fold reduction of AHPs with successive action potentials (cumulative inactivation),dopaminergic neurons [6],1.1±0.1
same,bursting value (action potentials in bursts / total),[7],12±6%
CN(CC(=O)O)C(=N)N [creatine],effect on neuronal activity,globus pallidus neurones; millimolar concentrations,no effect
